# From ChEMBL document CHEMBL1201862, “PubChem BioAssay data set” (2004)
# Calls of active or inactive are those of the source.
# Assays:
# [1] = molecular target: Cytochrome P450 2C19 (Homo sapiens, UniProt P33261); assay: Cytochrome panel assay with activity outcomes. Panel member name: p450-cyp2c19 Compounds with AC50 equal or less than 10 uM are considered active; assay type: functional; details: read-out: AC50
# [2] = molecular target: T1, Leucine aminopeptidase (Plasmodium falciparum 3D7, UniProt Q8IL11); assay: P. falciparum M17LAP inhibitors, primary screen, biochemical, fluorogenic H-Leu-NHMec substrate, 1536-well (AID 1619); assay type: functional
# T1 sequence (Q8IL11 whole entry): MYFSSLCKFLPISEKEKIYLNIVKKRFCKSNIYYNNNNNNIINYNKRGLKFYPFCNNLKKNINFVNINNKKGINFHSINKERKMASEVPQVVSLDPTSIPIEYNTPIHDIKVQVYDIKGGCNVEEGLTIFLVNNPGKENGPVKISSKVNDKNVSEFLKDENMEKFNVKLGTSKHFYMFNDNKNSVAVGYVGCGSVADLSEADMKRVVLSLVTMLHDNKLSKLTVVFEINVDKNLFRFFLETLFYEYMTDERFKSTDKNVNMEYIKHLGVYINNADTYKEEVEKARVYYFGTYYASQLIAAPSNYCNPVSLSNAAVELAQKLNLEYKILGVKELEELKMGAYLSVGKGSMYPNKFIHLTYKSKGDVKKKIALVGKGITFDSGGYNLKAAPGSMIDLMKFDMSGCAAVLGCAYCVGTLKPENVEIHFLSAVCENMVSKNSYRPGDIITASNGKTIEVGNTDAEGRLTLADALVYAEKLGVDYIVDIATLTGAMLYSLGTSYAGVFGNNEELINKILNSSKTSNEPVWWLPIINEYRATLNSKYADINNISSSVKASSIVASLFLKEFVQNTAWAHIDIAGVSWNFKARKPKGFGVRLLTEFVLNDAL
# [3] = molecular target: Cytochrome P450 2C9 (Homo sapiens, UniProt P11712)
# Sequence of Cytochrome P450 2C9 (P11712 whole entry): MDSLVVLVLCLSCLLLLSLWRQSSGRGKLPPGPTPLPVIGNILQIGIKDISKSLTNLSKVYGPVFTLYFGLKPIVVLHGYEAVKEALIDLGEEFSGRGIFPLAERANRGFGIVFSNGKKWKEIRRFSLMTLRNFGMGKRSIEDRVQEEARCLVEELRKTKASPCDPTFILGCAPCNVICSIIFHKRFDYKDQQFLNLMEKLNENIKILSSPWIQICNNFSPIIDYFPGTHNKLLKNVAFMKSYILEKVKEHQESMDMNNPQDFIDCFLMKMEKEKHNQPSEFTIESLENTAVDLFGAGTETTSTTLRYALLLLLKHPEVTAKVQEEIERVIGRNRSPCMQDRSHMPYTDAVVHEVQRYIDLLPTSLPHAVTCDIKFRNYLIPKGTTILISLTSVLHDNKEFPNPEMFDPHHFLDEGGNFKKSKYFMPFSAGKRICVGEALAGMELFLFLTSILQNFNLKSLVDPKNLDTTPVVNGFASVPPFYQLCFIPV
# [4] = molecular target: T2, Cytochrome P450 1A2 (Homo sapiens, UniProt P05177)
# T2 sequence (P05177 whole entry): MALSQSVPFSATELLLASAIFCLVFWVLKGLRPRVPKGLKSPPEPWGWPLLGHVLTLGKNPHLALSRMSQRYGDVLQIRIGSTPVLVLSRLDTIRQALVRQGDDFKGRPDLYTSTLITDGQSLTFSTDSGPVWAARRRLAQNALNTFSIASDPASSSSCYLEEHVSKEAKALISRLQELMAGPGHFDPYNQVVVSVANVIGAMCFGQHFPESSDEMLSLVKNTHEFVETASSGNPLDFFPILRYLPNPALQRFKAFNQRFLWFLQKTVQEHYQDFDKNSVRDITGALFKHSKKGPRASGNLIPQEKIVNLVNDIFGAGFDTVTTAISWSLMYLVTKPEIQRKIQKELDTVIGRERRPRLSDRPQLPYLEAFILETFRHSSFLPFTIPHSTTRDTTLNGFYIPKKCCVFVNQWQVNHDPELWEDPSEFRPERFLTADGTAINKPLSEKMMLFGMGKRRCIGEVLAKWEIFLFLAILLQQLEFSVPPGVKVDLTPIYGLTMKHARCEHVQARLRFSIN
# [5] = cells
# [6] = viability of uninfected HEp-2 cells – cell-based, HTS, cytotoxicity control for RSV inhibitor project, dose response (AID 2410); assay type: functional; details: human respiratory syncytial virus
# [7] = test system: Vero; assay: cells; assay type: functional, cell-based; details: Chlorocebus sabaeus
# [8] = HEK-293T viability loss after treatment – luminescence, T-cell screen hits, cytotoxicity control for TCR NF-kB inhibitor project, dose response (AID 489026); assay type: functional, cell-based;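 further: cells exposed to compound about 14 hours before the viability readout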
# [9] = molecular target: Heat shock protein HSP 90-alpha (Homo sapiens, UniProt P07900); assay type: functional, organism-based
# [10] = test system: Vero; assay: cells; assay type: functional; details: Chlorocebus sabaeus
# [11] = Luminescence Cell-Based Dose Retest to Confirm Inhibitors of Cancer Stem Cells. [Related pubchem assays (depositor defined):AID2717, AID2721]; assay type: functional; details: Homo sapiens
# [12] = molecular target: T3, Sentrin-specific protease 6 (Homo sapiens, UniProt Q9GZR1); assay type: functional;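 further: Luminescence-based dose-response confirmatory assay of SENP6 inhibition, following up an ultra-high-throughput screen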
# T3 sequence (Q9GZR1 whole entry): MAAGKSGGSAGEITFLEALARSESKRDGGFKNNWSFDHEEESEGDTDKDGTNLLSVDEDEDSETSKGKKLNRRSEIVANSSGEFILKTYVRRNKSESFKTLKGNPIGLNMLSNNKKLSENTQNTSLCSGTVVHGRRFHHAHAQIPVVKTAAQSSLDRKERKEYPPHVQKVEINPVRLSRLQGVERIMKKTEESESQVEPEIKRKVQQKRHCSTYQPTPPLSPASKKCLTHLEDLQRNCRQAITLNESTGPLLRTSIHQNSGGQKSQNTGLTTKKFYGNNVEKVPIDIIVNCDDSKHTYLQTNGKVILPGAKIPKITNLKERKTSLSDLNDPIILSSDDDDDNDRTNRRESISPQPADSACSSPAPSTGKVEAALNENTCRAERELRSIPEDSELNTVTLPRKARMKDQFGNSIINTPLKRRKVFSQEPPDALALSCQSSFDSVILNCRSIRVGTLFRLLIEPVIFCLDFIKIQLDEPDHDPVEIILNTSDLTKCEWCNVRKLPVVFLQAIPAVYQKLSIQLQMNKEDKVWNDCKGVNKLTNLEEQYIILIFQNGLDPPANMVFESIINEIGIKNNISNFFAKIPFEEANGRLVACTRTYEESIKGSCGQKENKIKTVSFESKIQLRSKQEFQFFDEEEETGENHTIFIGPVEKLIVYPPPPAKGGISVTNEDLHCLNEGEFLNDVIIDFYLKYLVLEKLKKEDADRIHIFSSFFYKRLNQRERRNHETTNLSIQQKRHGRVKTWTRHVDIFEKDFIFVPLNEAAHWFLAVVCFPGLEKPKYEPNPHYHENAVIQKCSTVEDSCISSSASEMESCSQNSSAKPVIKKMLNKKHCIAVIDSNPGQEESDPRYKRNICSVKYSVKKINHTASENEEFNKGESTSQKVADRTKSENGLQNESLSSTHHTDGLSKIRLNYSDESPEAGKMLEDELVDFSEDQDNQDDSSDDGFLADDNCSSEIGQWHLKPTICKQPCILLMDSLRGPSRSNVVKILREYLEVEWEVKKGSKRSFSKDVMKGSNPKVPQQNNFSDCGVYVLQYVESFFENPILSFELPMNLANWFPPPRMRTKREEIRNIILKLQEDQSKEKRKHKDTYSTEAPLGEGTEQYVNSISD
# [13] = molecular target: T4, Caspase-3 (Homo sapiens, UniProt P42574); assay type: functional;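 further: Dose-response selectivity test against caspase-3 for candidate inhibitors of sentrin-specific proteases (SENPs)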
# T4 sequence (P42574 whole entry): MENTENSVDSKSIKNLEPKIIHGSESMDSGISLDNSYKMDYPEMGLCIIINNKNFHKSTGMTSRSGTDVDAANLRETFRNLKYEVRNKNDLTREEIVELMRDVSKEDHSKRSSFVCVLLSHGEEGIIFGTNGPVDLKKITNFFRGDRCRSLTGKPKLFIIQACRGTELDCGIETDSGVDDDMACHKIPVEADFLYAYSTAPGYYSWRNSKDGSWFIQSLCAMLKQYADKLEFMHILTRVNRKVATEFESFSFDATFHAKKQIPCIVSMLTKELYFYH
# [14] = THP-1 cell cytotoxicity, dose response, cytotoxicity control for non-replicating M. tuberculosis project (AID 489025); assay type: functional
# [15] = molecular target: T5, Sentrin-specific protease 8 (Homo sapiens, UniProt Q96LD8); assay type: functional;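 further: luminescence read-out of SENP8 inhibition, dose-response confirmation following an ultra-high-throughput screen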
# T5 sequence (Q96LD8 whole entry): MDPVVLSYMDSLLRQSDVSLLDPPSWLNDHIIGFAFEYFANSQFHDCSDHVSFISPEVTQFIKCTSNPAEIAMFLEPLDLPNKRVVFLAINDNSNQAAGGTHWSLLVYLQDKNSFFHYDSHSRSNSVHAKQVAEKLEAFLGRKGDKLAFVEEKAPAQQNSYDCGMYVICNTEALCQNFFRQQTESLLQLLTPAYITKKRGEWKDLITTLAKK
# [16] = molecular target: T6, Sentrin-specific protease 7 (Homo sapiens, UniProt Q9BQF6); assay type: functional;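 further: Luminescence-based dose-response confirmation of ultra-high-throughput screening hits, measuring inhibition of SENP7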
# T6 sequence (Q9BQF6 whole entry): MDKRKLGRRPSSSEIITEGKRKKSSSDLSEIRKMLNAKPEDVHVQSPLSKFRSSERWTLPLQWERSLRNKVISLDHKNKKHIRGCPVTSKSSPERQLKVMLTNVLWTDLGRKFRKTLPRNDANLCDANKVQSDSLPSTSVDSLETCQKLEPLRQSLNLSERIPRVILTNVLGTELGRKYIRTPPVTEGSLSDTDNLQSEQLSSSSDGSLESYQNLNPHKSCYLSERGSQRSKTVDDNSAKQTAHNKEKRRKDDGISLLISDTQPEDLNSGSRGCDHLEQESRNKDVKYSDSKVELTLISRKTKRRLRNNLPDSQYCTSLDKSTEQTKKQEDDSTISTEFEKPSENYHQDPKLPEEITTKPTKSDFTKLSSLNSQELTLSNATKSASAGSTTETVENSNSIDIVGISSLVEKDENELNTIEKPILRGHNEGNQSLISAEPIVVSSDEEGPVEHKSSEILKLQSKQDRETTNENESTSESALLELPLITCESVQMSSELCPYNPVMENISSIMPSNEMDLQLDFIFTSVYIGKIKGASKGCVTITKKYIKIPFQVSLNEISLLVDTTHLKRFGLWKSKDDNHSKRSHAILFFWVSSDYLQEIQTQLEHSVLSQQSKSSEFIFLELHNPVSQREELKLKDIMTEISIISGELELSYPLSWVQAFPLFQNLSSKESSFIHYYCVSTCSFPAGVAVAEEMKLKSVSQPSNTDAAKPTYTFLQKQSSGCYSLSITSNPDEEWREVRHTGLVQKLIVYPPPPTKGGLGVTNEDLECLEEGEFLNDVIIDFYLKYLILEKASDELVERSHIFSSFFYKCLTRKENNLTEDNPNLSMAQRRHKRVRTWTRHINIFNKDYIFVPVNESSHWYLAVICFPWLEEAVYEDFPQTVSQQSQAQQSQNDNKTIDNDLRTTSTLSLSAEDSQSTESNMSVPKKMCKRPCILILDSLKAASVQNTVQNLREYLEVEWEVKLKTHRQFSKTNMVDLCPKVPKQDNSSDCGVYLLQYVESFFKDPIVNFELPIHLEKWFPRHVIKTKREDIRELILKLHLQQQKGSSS
# [17] = Vero E6 cell cytotoxicity, dose response, cytotoxicity control for non-replicating M. tuberculosis project, secondary assay (AID 492998); assay type: functional, VeroE6; details: Vero C1008
# [18] = cells; assay type: functional
# [19] = test system: INS1; assay: INS-1E survival protection against cytokine death – cell-based, luminescence, retest, dose response (AID 449756); assay type: functional; details: Rattus norvegicus;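 further: cell death triggered by IL-1 beta plus TNF-alpha plus IFN-gamma mixture; protective hits raise ATP signal compared with cytokine alone wells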
# [20] = test system: Streptococcus; assay: GAS UMAA2166 growth inhibition – luminescence, BacTiterGlo, counter-screen for streptokinase expression inhibitor project, dose response (AID 1915); assay type: functional, organism-based;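 further: potency for reduction of bacterial viability or growth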
# [21] = test system: Streptococcus sp. 'group A'; assay: Streptococcus pyogenes SK(-)GAS viability under kanamycin – luminescence, BacTiterGlo, confirmation, counter-screen for streptokinase expression inhibitor project, dose response (AID 1900); assay type: functional, organism-based
# [22] = microbe, parasite or virus in culture; assay type: functional; details: Mycobacterium tuberculosis
# [23] = molecular target: Alkaline phosphatase, placental type (Homo sapiens, UniProt P05187); assay: human placental alkaline phosphatase inhibition – biochemical, luminescence, confirmation (AID 1512); assay type: functional
# Sequence of Alkaline phosphatase, placental type (P05187 whole entry): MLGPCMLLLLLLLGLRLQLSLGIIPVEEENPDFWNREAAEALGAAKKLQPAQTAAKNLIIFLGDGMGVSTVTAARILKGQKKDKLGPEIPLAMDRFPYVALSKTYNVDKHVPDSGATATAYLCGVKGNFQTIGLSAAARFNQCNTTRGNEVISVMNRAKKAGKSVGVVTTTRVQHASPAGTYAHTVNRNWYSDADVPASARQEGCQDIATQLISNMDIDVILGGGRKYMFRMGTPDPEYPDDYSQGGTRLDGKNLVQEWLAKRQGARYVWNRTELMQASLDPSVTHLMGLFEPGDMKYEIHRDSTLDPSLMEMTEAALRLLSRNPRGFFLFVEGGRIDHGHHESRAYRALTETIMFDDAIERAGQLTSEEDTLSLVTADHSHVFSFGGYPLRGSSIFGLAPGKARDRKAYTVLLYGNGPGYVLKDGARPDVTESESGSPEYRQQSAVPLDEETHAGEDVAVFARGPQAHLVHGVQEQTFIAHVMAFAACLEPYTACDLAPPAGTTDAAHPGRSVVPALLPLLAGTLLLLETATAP
# Sequence of Cytochrome P450 2C19 (P33261 whole entry): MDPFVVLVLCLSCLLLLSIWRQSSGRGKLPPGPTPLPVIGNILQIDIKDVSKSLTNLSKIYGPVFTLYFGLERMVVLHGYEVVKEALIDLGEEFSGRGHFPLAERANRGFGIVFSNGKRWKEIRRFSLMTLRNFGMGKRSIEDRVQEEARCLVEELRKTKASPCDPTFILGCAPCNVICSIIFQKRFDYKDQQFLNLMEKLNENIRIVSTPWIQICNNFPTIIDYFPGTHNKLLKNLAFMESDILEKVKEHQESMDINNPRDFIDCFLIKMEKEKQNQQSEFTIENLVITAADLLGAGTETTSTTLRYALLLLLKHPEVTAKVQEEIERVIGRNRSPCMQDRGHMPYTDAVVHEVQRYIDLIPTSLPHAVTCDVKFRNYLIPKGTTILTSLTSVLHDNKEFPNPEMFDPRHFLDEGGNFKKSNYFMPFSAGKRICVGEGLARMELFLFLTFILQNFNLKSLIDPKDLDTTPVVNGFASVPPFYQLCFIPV
structure (smiles),measurement,setting,value
Cc1ccc(N(CC(N)=O)C2SC(=O)N(Cc3cccc(C(=O)O)c3)C2=O)cc1 (stereo not given),AC50,[1],20 µM (inconclusive)
same,IC50,[2],40.7 µM (active)
same,AC50,[3],12.6 µM (inconclusive)
same,AC50,[4],15.8 µM (inconclusive)
COc1ccccc1C1CCCN1Cc1nc(-c2ccc(C)s2)oc1C (stereo not given),IC50,[5],33.3 µM (active)
same,CC50,[6],20.2 µM (active)
same,IC50,[7],10.9 µM (active)
Cc1cc(C(=O)COC(=O)c2ccc[nH]c2=O)c(C)n1CCc1ccc(F)cc1,IC50,[2],18.2 µM (active)
O=S(=O)(Nc1ccc(F)cc1Cl)c1ccc(-c2cnc(C3CC3)o2)cc1,IC50,[8],> 80 µM (inactive)
Cc1cccc(NC(S)=NCC23C=CC(O2)C2C(=O)N(c4ccc(Cl)cc4)C(=O)C23)c1 (stereo not given),AC50,[9],15 µM (active)
CCOc1ccc(NC(=O)CSc2nnc(N)s2)c([N+](=O)[O-])c1,IC50,[2],2.52 µM (active)
O=C(CCN1C(=O)/C(=C/c2ccc(F)cc2)SC1=S)NCCc1ccc(O)cc1,CC50,[10],24.1 µM (active)
same,IC50,[7],> 25 µM (active)
O=C(Nc1ccn(Cc2ccccc2F)n1)c1ccc(COc2ccc(Br)cc2)cc1,IC50,[8],> 80 µM (inactive)
O=C1C=C(Nc2ccc(F)cc2)c2ccccc2C1=O,AC50,[11],3.19 µM (active)
same,IC50,[12],2.94 µM (active)
same,IC50,[13],13.9 µM (active)
same,CC50,[14],19 µM (active)
same,IC50,[15],4.81 µM (active)
same,IC50,[16],9.46 µM (active)
same,CC50,[17],9.15 µM (active)
same,IC50,[18],4.25 µM (active)
same,AC50,[19],3.06 µM (active)
OC(Cn1cncn1)(c1ccc(F)cc1)c1ccc(Cl)cc1 (stereo not given),AC50,[9],< 0.195 µM (active)
CC(C)c1ccc(OCC(=O)NNC(=S)NC(=O)c2ccco2)c(Br)c1,CC50,[10],> 25 µM (active)
same,IC50,[7],> 25 µM (active)
same,EC50,[20],0.141 µM (active)
same,EC50,[21],< 0.06 µM (active)
CCOC(=O)C(CSCC(=O)c1ccc(Br)cc1)NC(=O)OC(C)(C)C (stereo not given),IC50,[2],62.2 µM (active)
Cc1cc(/C=C/c2ccc3cc(N(C)C)ccc3[n+]2C)c(C)n1-c1ccccc1,CC50,[22],2.28 µM (active)
same,AC50,[9],5.91 µM (active)
Cc1ccc(-n2ncc3c(NNC(=O)c4ccco4)ncnc32)c(C)c1,IC50,[23],> 100 µM (inactive)
CCCc1c(NC(=O)Nc2ccc(Cl)cc2Cl)cnn1-c1ccccc1,CC50,[10],> 25 µM (active)
same,IC50,[7],17.9 µM (active)
CCCCCCCCCC(=O)N[C@@H]1c2cc(OC)c(OC)cc2C[C@H]1OCc1ccccc1,IC50,[7],> 25 µM (active)
